pIC50: −log10 of the molar value.
Target: T1, Recombinant full length human OGA enzyme (Homo sapiens, UniProt O60502)
T1 construct: Recombinant full length human OGA enzyme was purchased from Origene; purchased Origene
T1 sequence (O60502 1-916): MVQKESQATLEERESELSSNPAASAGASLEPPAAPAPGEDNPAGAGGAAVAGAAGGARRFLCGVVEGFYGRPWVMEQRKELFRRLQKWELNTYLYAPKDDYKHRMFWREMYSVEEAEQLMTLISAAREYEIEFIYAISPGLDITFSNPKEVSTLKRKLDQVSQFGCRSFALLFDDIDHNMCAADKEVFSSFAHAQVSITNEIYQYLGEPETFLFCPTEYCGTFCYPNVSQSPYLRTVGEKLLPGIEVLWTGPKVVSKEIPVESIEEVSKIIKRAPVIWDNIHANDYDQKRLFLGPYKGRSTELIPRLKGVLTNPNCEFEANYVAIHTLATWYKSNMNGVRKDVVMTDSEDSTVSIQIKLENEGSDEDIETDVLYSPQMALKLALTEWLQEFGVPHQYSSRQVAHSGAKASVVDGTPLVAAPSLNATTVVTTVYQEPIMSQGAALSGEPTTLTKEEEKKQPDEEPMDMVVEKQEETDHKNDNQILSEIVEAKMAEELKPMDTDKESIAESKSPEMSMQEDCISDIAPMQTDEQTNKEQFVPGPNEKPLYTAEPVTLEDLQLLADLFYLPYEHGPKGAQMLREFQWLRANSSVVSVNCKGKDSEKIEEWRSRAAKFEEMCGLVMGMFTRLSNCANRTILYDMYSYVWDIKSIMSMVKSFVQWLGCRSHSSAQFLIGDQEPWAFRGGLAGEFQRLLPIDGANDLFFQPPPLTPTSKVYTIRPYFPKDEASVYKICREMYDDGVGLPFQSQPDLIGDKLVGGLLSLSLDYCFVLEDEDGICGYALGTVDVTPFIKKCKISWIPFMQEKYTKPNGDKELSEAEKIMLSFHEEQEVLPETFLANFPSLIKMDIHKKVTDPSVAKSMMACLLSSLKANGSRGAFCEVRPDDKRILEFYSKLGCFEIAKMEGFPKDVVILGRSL
Assay: OGA Enzyme Inhibition Biochemical Assay
Settings: 1 nM OGA, 100 μM 4-MUGlcNAc (Km), pH 6.4, 90 minutes at room temperature, 10-point dose-response from 20 μM
Experimental: OGA Enzyme Inhibition Biochemical Assay
Recombinant full length human OGA enzyme was purchased from Origene. 4-MUGlCNAc substrate was purchased from Sigma. All other reagents were purchased from Sigma or Fisher. Assay buffer consists of the McIlvaine buffer system, pH 6.4 (0.2M Na2HPO4 mixed with 0.1M citric acid) and 0.01% BSA. Reactions consist of 1 nM OGA, 100 μM 4-MUGlcNAc (Km), and compound in a final volume of 10 μl. Reactions were incubated for 90 minutes at room temperature and quenched with 40 μl of 3M glycine, pH 10 and read on a Perkin Elmer Envision plate reader (Ex: 355 nm/Em: 460 nm). Compounds were tested with a 10-point dose-response starting from 20 μM with a 4-fold dilution. Data was fit using GraphPad Prism using a 4-parameter fit with variable slope.

| pIC50 | SMILES |
| --- | --- |
| 8.00 | CC(=O)Nc1nc(F)c(CN2CC[C@H](Cc3cc(C)nc(C)n3)C2)s1 [Example 3-29, (R)-N-(5-((3-((2,6-dimethylpyrimidin-4-yl)methyl)pyrrolidin-1-yl)methyl)-4-fluorothiazol-2-yl)acetamide] |
| 6.35 | CC(=O)Nc1ncc(CN2CC(Cc3ncc(F)cn3)CC(F)(F)C2)s1 (centres unmarked) [Example 2-13, N-(5-((3,3-difluoro-5-((5-fluoropyrimidin-2-yl)methyl)piperidin-1-yl)methyl)thiazol-2-yl)acetamide] |
| 9.00 | COc1nc(C[C@H]2CCCN(Cc3cnc(NC(C)=O)s3)C2)nc(C)c1F [Example 3-8, (R)-N-(5-((3-((5-fluoro-4-methoxy-6-methylpyrimidin-2-yl)methyl)piperidin-1-yl)methyl)thiazol-2-yl)acetamide] |
| 6.97 | CC(=O)Nc1ncc(CN2C[C@@H](Cc3ncc(F)cn3)C[C@@H]2C)s1 (single isomer, unassigned) [Example 2-21] |
| 7.96 | CC(=O)Nc1ncc(CN2CC(F)CC(Cc3ncc(F)cn3)C2)s1 (centres unmarked) [Example 3-2, N-(5-((3-fluoro-5-((5-fluoropyrimidin-2-yl)methyl)piperidin-1-yl)methyl)thiazol-2-yl)acetamide] |
| 9.00 | CC(=O)Nc1ncc(CN2CCC[C@@H]([C@@H](C)c3ncc(F)cn3)C2)s1 (single isomer, unassigned) [Example 2-29] |
| 7.54 | CC(=O)Nc1ncc([C@@H](C)N2CCC[C@H](Cc3ncc(F)cn3)C2)s1 (single isomer, unassigned) [Example 2-10] |
| > 9.00 | CC(=O)Nc1nc(F)c(CN2C[C@@H](Cc3ncc(F)cn3)C[C@H]2C)s1 [Example 3-42, N-(4-fluoro-5-(((2R,4R)-4-((5-fluoropyrimidin-2-yl)methyl)-2-methylpyrrolidin-1-yl)methyl)thiazol-2-yl)acetamide] |
| > 9.00 | CC(=O)Nc1ncc(CN2CC(Cc3noc(C)n3)CC[C@@H]2C)s1 (stereo partly drawn) [Example 4-17, N-(5-(((2S)-2-methyl-5-((5-methyl-1,2,4-oxadiazol-3-yl)methyl)piperidin-1-yl)methyl)thiazol-2-yl)acetamide] |
| 8.15 | CC(=O)Nc1ncc(CN2CC[C@H](Cc3ncc(F)cn3)C2)s1 (single isomer, unassigned) [Example 2-1] |
| 9.00 | CC(=O)Nc1ncc(CN2C[C@@H](Cc3ncc(F)cn3)C[C@H]2C)s1 (single isomer, unassigned) [Example 2-19] |
| 6.35 | CC(=O)Nc1ncc(CN2CCCC(C)(Cc3ncc(F)cn3)C2)s1 (centres unmarked) [Example 2-34, N-(5-((3-((5-fluoropyrimidin-2-yl)methyl)-3-methylpiperidin-1-yl)methyl)thiazol-2-yl)acetamide] |
| > 9.00 | COc1cc(C[C@H]2CCCN(Cc3sc(NC(C)=O)nc3F)C2)ncn1 [Example 3-22, (R)-N-(4-fluoro-5-((3-((6-methoxypyrimidin-4-yl)methyl)piperidin-1-yl)methyl)thiazol-2-yl)acetamide] |
| 8.30 | CC(=O)Nc1ncc(CN2C[C@H](Cc3ncc(F)cn3)CC[C@@H]2C)s1 (single isomer, unassigned) [Example 2-25] |
| > 9.00 | COc1nc(C[C@H]2CCN(Cc3cnc(NC(C)=O)s3)C2)nc(C)c1F [Example 3-9, (R)-N-(5-((3-((5-fluoro-4-methoxy-6-methylpyrimidin-2-yl)methyl)pyrrolidin-1-yl)methyl)thiazol-2-yl)acetamide] |
| 6.02 | CC(=O)Nc1ncc(CN2CCCC(Cn3cc(C(F)(F)F)cn3)C2)s1 (centres unmarked) [Example 4-3, N-(5-((3-((4-(trifluoromethyl)-1H-pyrazol-1-yl)methyl)piperidin-1-yl)methyl)thiazol-2-yl)acetamide] |
| 8.03 | CC(=O)Nc1ncc(CN2CCCC(Cc3noc(C)n3)C2)s1 (centres unmarked) [Example 4-19, N-(5-((3-((5-methyl-1,2,4-oxadiazol-3-yl)methyl)piperidin-1-yl)methyl)thiazol-2-yl)acetamide] |
| 9.00 | CC(=O)Nc1ncc([C@H](C)N2CCC[C@H](Cc3ncc(F)cn3)C2)s1 (single isomer, unassigned) [Example 2-11] |
| 9.00 | CC(=O)Nc1ncc(CN2C[C@H](Cc3ncc(F)cn3)C[C@H]2C)s1 (single isomer, unassigned) [Example 2-20] |
| 7.44 | CC(=O)Nc1ncc(CN2C[C@@H](Cc3ncc(F)cn3)[C@H](C)C2)s1 (relative stereo) [Example 2-22, N-(5-(((trans)-3-((5-fluoropyrimidin-2-yl)methyl)-4-methylpyrrolidin-1-yl)methyl)thiazol-2-yl)acetamide] |
| 7.11 | CC(=O)Nc1nc(F)c(CN2CC[C@@H](Cc3ncc(F)cn3)C2)s1 [Example 3-36, (S)—N-(4-fluoro-5-((3-((5-fluoropyrimidin-2-yl)methyl)pyrrolidin-1-yl)methyl)thiazol-2-yl)acetamide] |
| 7.74 | CC(=O)Nc1ncc(CN2CCC[C@H](Cc3ccc(C(F)F)nc3)C2)s1 [Example 2-8, (R)-N-(5-((3-((6-(difluoromethyl)pyridin-3-yl)methyl)piperidin-1-yl)methyl)thiazol-2-yl)acetamide] |

The next lines start with the molecule.

| SMILES | pIC50 |
| --- | --- |
| CC(=O)Nc1ncc(CN2CCCC(Cc3nc(C)cs3)C2)s1 (centres unmarked) [Example 1-34, N-(5-((3-((4-methylthiazol-2-yl)methyl)piperidin-1-yl)methyl)thiazol-2-yl)acetamide] | 8.30 |
| CC(=O)Nc1ncc(CN2CCC(Cc3cncc(F)c3)C2)s1 (centres unmarked) [Example 1-24, N-(5-((3-((5-fluoropyridin-3-yl)methyl)pyrrolidin-1-yl)methyl)thiazol-2-yl)acetamide] | 7.51 |
| CC(=O)Nc1ncc(CN2CCCC(Cc3nccs3)C2)s1 (centres unmarked) [Example 1-39, N-(5-((3-(thiazol-2-ylmethyl)piperidin-1-yl)methyl)thiazol-2-yl)acetamide] | 7.96 |
| CC(=O)Nc1ncc(CN2CCCC(Cc3cncc(C)n3)C2)s1 (centres unmarked) [Example 1-33, N-(5-((3-((6-methylpyrazin-2-yl)methyl)piperidin-1-yl)methyl)thiazol-2-yl)acetamide] | 8.40 |
| CC(=O)Nc1ncc(CN2CCCC(Cc3cc(C)ccn3)C2)s1 (centres unmarked) [Example 1-45, N-(5-((3-((4-methylpyridin-2-yl)methyl)piperidin-1-yl)methyl)thiazol-2-yl)acetamide] | 7.62 |
| CC(=O)Nc1ncc(CN2CCCC(Cc3cccc(C)n3)C2)s1 (centres unmarked) [Example 1-29, N-(5-((3-((6-methylpyridin-2-yl)methyl)piperidin-1-yl)methyl)thiazol-2-yl)acetamide] | 8.70 |
| COc1ccc(CC2CCCN(Cc3cnc(NC(C)=O)s3)C2)cn1 (centres unmarked) [Example 1-11, N-(5-((3-((6-methoxypyridin-3-yl)methyl)piperidin-1-yl)methyl)thiazol-2-yl)acetamide] | 8.40 |
| CC(=O)Nc1ncc(CN2CCCC(Cc3ncnc4ccsc34)C2)s1 (centres unmarked) [Example 1-44, N-(5-((3-(thieno[3,2-d]pyrimidin-4-ylmethyl)piperidin-1-yl)methyl)thiazol-2-yl)acetamide] | 8.70 |
| COc1cccc(CC2CCCN(Cc3cnc(NC(C)=O)s3)C2)n1 (centres unmarked) [Example 1-6, N-(5-((3-((6-methoxypyridin-2-yl)methyl)piperidin-1-yl)methyl)thiazol-2-yl)acetamide] | 8.70 |
| CC(=O)Nc1ncc(CN2CCCC(Cc3ccn(C)n3)C2)s1 (centres unmarked) [Example 1-47, N-(5-((3-((1-methyl-1H-pyrazol-3-yl)methyl)piperidin-1-yl)methyl)thiazol-2-yl)acetamide] | 7.80 |
| COc1ccc(CC2CCCN(Cc3cnc(NC(C)=O)s3)C2)cc1 (centres unmarked) [Example 1-4, N-(5-((3-(4-methoxybenzyl)piperidin-1-yl)methyl)thiazol-2-yl)acetamide] | 8.10 |
| CC(=O)Nc1ncc(CN2CCC(Cc3ccc(F)cc3)C2)s1 (centres unmarked) [Example 1-17, N-(5-((3-(4-fluorobenzyl)pyrrolidin-1-yl)methyl)thiazol-2-yl)acetamide] | 6.74 |
| COc1ccnc(CC2CCN(Cc3cnc(NC(C)=O)s3)C2)c1 (centres unmarked) [Example 1-21, N-(5-((3-((4-methoxypyridin-2-yl)methyl)pyrrolidin-1-yl)methyl)thiazol-2-yl)acetamide] | 7.89 |
